Data from patent US10106558B2, “Azolobenzazine compounds, compositions comprising these compounds and their use for controlling invertebrate pests” (BASF SE, priority 2015, dated 2018).

Experiments:
Assay type in all cases: in vivo
[1] = test system: Diamond Back Moth (Plutella xylostella); assay: Action on diamond back moth, dipped cabbage leaves; settings: 3rd instar larvae, 72 hours after treatment, read-out: mortality in comparison with untreated controls
How it was run: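 Cabbage leaves dipped in compound in 1:1 water:acetone with 0.01% (vol/vol) surfactant, air-dried, placed on moist filter paper and infested with ten 3rd-instar larvae. Mortality scored 72 hours after treatment; feeding damage rated on a 0-100% scale.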

[2] = test system: Southern Armyworm (Spodoptera eridania), 2nd instar larvae; assay: Action on southern armyworm 2nd instar larvae, sprayed lima bean plants; settings: 96 h, 4 days after treatment, read-out: mortality in comparison with untreated controls
How it was run: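 Lima bean plants (Sieva, 1st true leaf) sprayed electrostatically with compound in 50% acetone/water plus 0.01% nonionic surfactant, dried, then infested with 10–11 larvae in bags. Held at about 25 °C, 20–40% RH; mortality and reduced feeding scored 4 days after treatment versus untreated plants.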

[3] = test system: boll weevil (Anthonomus grandis); assay: Action on boll weevil, eggs on insect diet in 96-well microtiter plates; settings: 120 h, 800 ppm, egg and larval mortality visually assessed after 5 days, read-out: mortality in comparison with untreated controls
How it was run: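 Diet in 96-well plates was infested with 5-10 A. grandis eggs and sprayed with compounds formulated in 75% water/25% DMSO, at several concentrations, in two replicates. Plates were held 5 days at about 25±1 °C and 75±5% RH. Egg and larval mortality was then scored visually.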

[4] = test system: Orchid Thrips (Dichromothrips corbetti); assay: Action on orchid thrips, floral-immersion technique; settings: adult thrips, 72 hours after treatment, read-out: mortality in comparison with untreated controls
How it was run: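 Lab-colony adult thrips, about 20 per arena, were exposed to whole orchid flower petals dipped in compound diluted in 1:1 acetone:water with 0.01% v/v Kinetic HV and then dried. Arenas were held under continuous light at about 28 °C. Live thrips were counted after 3 days and percent mortality recorded at 72 h post-treatment.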

[5] = test system: Silverleaf Whitefly (Bemisia argentifolii) (Adults); assay: Action on silverleaf whitefly adults, sprayed cotton plants; settings: 72 h, 3 days after treatment, read-out: mortality in comparison with untreated controls
How it was run: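 Compounds diluted from cyclohexanone stocks into 50% acetone/water with 0.01% nonionic surfactant and electrostatically sprayed onto cotyledon-stage cotton. Dried plants were infested with 10–12 adults (3–5 days old), held ~25 °C, 20–40% RH for 3 days; mortality scored at day 3 vs untreated plants.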

[6] = test system: green peach aphid (Myzus persicae) (mixed life stages); assay: Action on green peach aphid, liquid artificial diet under artificial membrane; settings: 72 h, 800 ppm, adult aphids on treated aphid diet, 3 days, read-out: mortality in comparison with untreated controls
From the text: Example B8: Action on Green Peach Aphid (Myzus persicae) (Mixed Life Stages)
For evaluating control of green peach aphid (Myzus persicae) through systemic means the test unit consisted of 96-well-microtiter plates containing liquid artificial diet under an artificial membrane.
The compounds were formulated using a solution containing 75% v/v water and 25% v/v DMSO. Different concentrations of formulated compounds were pipetted into the aphid diet, using a custom built pipetter, at two replications.
After application, 5-8 adult aphids were placed on the artificial membrane inside the microtiter plate wells. The aphids were then allowed to suck on the treated aphid diet and incubated at about 23±1° C. and about 50±5% relative humidity for 3 days. Aphid mortality and fecundity was then visually assessed.

[7] = test system: tobacco budworm (Heliothis virescens); assay: Action on tobacco budworm, eggs on insect diet in 96-well microtiter plates; settings: 120 h, egg and larval mortality visually assessed after 5 days, read-out: mortality in comparison with untreated controls
How it was run: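 Compounds in 25% DMSO/water sprayed (10 μl) onto insect diet holding 15–25 H. virescens eggs, two replicates at several concentrations. Held 5 days at about 28±1 °C, 80±5% RH. Egg and larval mortality scored visually.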

Cc1ccc(C(C)C)c(N2C(=O)CS/C2=N\N=C\c2ccc3c(ccc4c3ncn4-c3ccc(OC(F)(F)F)cc3)n2)c1 [Compound C-6, (2Z)-3-(2-isopropyl-5-methyl-phenyl)-2-[(E)-[3-[4-(trifluoromethoxy)phenyl]imidazo[4,5-f]quinolin-7-yl]methylenehydrazono]thiazolidin-4-one]
≥ 75%: mortality at 500 ppm [1] | mortality at 500 ppm [2] | mortality at 800 ppm [3] | mortality at 500 ppm [4] | mortality at 500 ppm [5] | mortality at 800 ppm [6] | mortality at 800 ppm [7]
